Measurements reported in ChEMBL document CHEMBL1201862, “PubChem BioAssay data set” (2004).
The source made the active and inactive calls.

Tests used:
[1] = target: DNA dC->dU-editing enzyme APOBEC-3G (Homo sapiens, UniProt Q9HC16); assay: inhibition of APOBEC3G ssDNA deamination – biochemical, fluorescence, single-stranded DNA substrate, SAR follow-up (AID 602136); assay type: functional; conditions: read-out: IC50_Mean
[2] = target: DNA dC->dU-editing enzyme APOBEC-3A (Homo sapiens, UniProt P31941); assay: SAR analysis of small molecule inhibitors of APOBEC3A DNA Deaminase via a fluorescence-based single-stranded DNA deaminase assay.; assay type: functional; conditions: read-out: IC50_Mean
Sequence of DNA dC->dU-editing enzyme APOBEC-3A (P31941 whole entry): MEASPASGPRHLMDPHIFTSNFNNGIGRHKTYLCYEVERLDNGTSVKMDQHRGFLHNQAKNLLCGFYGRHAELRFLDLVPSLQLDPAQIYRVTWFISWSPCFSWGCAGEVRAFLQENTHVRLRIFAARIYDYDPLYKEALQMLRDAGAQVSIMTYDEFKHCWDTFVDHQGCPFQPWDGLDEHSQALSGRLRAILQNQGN

[3] = system: HEK293; assay: optical interference in Abeta FP readout, dose response, artefact control for IDE activator project, biochemical, fluorescence polarization (AID 588442); assay type: functional, cell-based; conditions: Homo sapiens
[4] = system: HEK293; assay: membrane integrity loss in HEK cells – cell-based, fluorescence, cytotoxicity control for IDE activator project, dose response (AID 588440); assay type: functional; conditions: Homo sapiens;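 further: cytotoxicity by LDH release measuring loss of membrane integrity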
[5] = target: T1, Insulin-degrading enzyme (Homo sapiens, UniProt P14735); assay: cellular IDE activation of Abeta substrate cleavage – fluorescence polarization, HEK cells, dose response (AID 588439); assay type: functional, cell-based
T1 sequence (P14735 whole entry): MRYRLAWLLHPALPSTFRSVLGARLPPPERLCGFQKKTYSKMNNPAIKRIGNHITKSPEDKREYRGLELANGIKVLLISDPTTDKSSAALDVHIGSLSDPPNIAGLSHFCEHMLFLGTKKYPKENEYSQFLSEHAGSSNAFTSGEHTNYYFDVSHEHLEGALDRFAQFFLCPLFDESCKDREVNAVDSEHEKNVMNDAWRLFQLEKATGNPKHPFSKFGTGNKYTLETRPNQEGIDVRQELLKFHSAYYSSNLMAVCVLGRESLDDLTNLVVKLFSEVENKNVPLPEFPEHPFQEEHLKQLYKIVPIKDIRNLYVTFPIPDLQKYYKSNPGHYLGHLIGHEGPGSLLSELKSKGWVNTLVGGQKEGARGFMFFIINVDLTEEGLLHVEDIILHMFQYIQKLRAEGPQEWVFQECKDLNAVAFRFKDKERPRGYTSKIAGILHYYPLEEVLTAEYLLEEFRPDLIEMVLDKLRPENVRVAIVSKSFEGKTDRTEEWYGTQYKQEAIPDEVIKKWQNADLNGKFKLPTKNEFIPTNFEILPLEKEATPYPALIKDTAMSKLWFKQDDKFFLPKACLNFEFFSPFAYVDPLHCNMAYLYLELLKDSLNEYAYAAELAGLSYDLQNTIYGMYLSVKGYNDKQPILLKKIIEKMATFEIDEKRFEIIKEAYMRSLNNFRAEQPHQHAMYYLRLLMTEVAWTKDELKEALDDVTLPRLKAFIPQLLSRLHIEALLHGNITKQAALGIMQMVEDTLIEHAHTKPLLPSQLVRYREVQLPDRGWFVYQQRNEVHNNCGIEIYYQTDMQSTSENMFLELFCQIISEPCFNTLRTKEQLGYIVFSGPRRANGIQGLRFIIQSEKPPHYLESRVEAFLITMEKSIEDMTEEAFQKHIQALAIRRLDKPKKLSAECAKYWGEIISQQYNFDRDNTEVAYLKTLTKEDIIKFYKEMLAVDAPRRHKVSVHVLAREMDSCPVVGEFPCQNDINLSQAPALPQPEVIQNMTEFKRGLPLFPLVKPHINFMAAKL

[6] = target: T1, Insulin-degrading enzyme; assay: recombinant IDE activation, cell-free – biochemical, fluorescence polarization, counter-screen for IDE activator project, dose response (AID 588681)
[7] = target: Serine/threonine-protein kinase Chk1 (Homo sapiens, UniProt O14757); assay type: functional;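 further: measured as one member of a kinome-wide kinase profiling panel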
Sequence of Serine/threonine-protein kinase Chk1 (O14757 whole entry): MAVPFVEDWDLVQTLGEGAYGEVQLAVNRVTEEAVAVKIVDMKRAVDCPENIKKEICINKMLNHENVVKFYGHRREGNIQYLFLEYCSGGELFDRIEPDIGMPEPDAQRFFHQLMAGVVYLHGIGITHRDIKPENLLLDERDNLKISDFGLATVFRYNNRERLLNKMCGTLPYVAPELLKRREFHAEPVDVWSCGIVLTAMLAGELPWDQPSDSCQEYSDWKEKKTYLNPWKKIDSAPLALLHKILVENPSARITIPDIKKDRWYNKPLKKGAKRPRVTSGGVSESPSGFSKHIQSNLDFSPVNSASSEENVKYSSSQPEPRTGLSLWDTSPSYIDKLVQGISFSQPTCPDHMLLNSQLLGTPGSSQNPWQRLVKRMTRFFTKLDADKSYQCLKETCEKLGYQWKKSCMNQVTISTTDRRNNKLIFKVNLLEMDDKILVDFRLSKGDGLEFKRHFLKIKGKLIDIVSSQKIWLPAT

[8] = target: Dual specificity mitogen-activated protein kinase kinase 1 (Homo sapiens, UniProt Q02750); assay: Navigating the Kinome. Panel member name: MAP2K1; assay type: functional
Sequence of Dual specificity mitogen-activated protein kinase kinase 1 (Q02750 whole entry): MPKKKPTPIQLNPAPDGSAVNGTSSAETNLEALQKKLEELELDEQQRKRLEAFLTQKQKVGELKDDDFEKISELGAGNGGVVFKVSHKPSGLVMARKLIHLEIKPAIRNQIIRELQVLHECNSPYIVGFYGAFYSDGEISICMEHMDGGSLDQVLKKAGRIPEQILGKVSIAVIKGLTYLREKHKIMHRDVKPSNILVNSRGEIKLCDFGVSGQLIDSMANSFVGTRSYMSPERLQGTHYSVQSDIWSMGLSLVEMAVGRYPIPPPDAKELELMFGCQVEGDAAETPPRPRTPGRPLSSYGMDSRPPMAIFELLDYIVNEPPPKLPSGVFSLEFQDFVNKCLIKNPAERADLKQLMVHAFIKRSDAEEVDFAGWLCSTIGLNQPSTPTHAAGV

[9] = target: T2, Apoptotic protease-activating factor 1 (Homo sapiens, UniProt O14727); assay: SAR analysis of small molecule Inhibitors of Apaf-1 in a Fluorescent assay - set 2.; assay type: functional; conditions: read-out: IC50_Mean
T2 sequence (O14727 whole entry): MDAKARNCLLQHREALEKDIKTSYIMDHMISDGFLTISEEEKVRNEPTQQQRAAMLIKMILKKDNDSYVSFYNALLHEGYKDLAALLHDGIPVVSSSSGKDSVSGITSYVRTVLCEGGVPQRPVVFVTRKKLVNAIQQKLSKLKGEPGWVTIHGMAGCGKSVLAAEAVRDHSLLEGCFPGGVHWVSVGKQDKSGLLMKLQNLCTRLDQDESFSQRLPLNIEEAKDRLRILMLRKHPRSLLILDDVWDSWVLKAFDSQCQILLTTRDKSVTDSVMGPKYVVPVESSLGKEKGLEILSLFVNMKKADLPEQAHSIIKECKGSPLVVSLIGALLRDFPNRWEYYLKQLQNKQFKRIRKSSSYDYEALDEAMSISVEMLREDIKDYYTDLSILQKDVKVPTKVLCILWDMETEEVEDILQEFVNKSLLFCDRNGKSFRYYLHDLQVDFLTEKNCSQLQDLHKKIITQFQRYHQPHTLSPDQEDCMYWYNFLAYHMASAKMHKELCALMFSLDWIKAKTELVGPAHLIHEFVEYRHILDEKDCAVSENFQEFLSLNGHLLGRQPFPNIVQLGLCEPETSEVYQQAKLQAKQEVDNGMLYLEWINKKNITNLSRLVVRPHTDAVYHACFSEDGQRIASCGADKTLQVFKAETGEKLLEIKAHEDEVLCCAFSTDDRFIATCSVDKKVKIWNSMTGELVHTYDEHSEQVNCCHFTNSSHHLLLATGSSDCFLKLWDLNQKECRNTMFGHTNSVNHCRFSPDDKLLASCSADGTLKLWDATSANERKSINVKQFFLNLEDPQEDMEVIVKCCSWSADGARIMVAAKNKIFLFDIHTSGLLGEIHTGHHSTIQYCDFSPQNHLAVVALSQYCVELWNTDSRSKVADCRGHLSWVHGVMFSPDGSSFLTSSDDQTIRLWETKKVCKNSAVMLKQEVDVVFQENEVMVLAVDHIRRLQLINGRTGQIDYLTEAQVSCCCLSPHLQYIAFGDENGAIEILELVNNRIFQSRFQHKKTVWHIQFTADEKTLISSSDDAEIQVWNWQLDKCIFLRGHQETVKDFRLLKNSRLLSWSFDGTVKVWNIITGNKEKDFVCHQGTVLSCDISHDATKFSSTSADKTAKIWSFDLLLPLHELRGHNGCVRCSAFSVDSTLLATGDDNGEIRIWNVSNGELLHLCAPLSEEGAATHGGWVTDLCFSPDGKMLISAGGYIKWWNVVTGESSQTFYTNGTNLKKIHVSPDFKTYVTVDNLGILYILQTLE

[10] = SAR analysis of small molecule inhibitors of Apaf-1 using a LZ-Caspase-9/Caspase-3 Fluorescent Selectivity assay - Set 2.; assay type: functional; conditions: read-out: IC50_Mean
[11] = THP-1 cell cytotoxicity, dose response, cytotoxicity control, set 3 (AID 504852); assay type: functional; conditions: Mycobacterium tuberculosis
[12] = Vero cell cytotoxicity, cytotoxicity control for M. tuberculosis inhibitor project, purified and synthesized samples, set 3 (AID 504684); assay type: functional

Sequence of DNA dC->dU-editing enzyme APOBEC-3G (Q9HC16 whole entry): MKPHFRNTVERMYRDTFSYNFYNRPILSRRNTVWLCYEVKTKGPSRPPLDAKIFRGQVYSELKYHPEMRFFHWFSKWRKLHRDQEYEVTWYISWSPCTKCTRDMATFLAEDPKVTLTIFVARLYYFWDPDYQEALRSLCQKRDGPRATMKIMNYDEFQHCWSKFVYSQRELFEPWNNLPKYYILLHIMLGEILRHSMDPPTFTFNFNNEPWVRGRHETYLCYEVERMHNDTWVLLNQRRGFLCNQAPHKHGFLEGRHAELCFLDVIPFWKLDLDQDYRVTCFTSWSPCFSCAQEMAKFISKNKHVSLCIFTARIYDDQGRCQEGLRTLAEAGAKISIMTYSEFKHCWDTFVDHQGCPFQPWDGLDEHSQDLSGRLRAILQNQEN

In the case of CN1CC2=C(N=C1NCCCO)c1ccccc1CC21CCCCC1, the IC50 [1] is reported as > 99 µM (inactive) and the IC50 [2] is reported as > 99 µM (inactive).
With O=C(O)c1ccccc1NC(=O)C1CCN(S(=O)(=O)c2cccc3nsnc23)CC1 the EC50 [3] was 2.44 µM (active), the IC50 [4] was > 89.2 µM (inactive) and the EC50 [5] was > 18.2 µM (inactive). For the same compound, the EC50 [6] was > 54.7 µM (inactive).
With CN(C)Cc1ccc2c(c1)NC(=O)C1CCCN21 (configuration not stated) the Ki [7] was 1.58 µM (active) and the Ki [8] was 3.16 µM (active).
With Cc1cc(C)c2c(c1)N(Cc1ccc(Cl)c(Cl)c1)C(=O)C2=O the IC50 [9] was 42 µM (active) and the IC50 [10] was 20.1 µM (active).
In the case of COC(=O)c1ccc(CNc2c(N3CCCC3)c(=O)c2=O)cc1, the CC50 [11] is reported as > 100 µM (active) and the CC50 [12] is reported as > 100 µM (active).
